Experiments:
[1] = test system: rats; test: Elevated plus maze (EPM) after acute microinjection; assay type: in vivo; details: versus controls
Source text: (§1) This is indicative of less depression-like behavior in FGF2 animals.
(§2) Again, this is an index of less depression-like behavior. This is also in the same direction as the FGF2 data, consistent with the fact that both FGF2 and NCAM interact with the FGF receptor.
(§3) These observations are nevertheless consistent with the conclusions drawn from the microinjection studies above.

[2] = test system: rats; test: Forced swim test (FST) after microinjection; assay type: in vivo; details: versus controls
Source text: as §1, §2, §3

[3] = test system: Sprague-Dawley rats; test: Morris water maze learning and memory test in adults after early postnatal FGF2; assay type: in vivo; details: 20 ng/g s.c. the day after birth, tested as adults
Experimental: (§4) Methods. Sprague-Dawley rats were injected with either vehicle or FGF2 (20 ng/g, s.c.) the day after birth and sacrificed after Morris water maze testing as adults. We assessed changes in gene expression using both a candidate approach and a gene discovery approach with laser-capture microdissection of the dentate gyrus followed by microarray analyses.

[4] = test system: GAP-43, Rgs4, trkb, CCK, SST, Vgf, NCAM expression; test: Hippocampal (dentate gyrus) gene expression in adult rats after early postnatal FGF2; assay type: in vivo; details: FGF2 20 ng/g s.c. the day after birth
Experimental: as §4
Results. […] Several genes associated with neural plasticity were also found altered in the adult rats, as shown by histochemical and RNA expression assays. For example, expression of GAP-43, Rgs4, trkb, CCK, SST, and Vgf was increased, while expression of NCAM was decreased.

[5] = test system: rats; test: Elevated plus-maze (EPM) and light-dark (LD) anxiety tests after chronic FGF2; assay type: in vivo; details: 5 ng/g i.p. every 48 hours for 3 weeks
Experimental: Anxiety disorders have a high comorbidity with other neuropsychiatric disorders including Major Depression (MD). […] Rats were placed into “high anxiety” (LR) or “low anxiety” (HR) groups based on their behavior in a variety of motor and behavioral tests. Both groups of animals were administered either FGF2 (5 ng/g) or vehicle by intraperitoneal injection every 48 hours for 3 weeks. One day after the last FGF2 injection, all animals were tested in the elevated plus-maze (EPM) and light-dark (LD) anxiety test.
The apparatus for the EPM test is constructed of black Plexiglass with […] (70 cm from the floor, 45 cm long, and 12 cm wide). Illumination is provided by a 40-watt desk lamp facing a wall and placed behind one of the closed arms. The scientists put the animal inside the system. Animals that are less anxious spend more time in the open arms whereas animals that are more anxious spend less time in the open arms.
The LD test is conducted in a 30×60×30-cm Plexiglas shuttle box with a translucent cover. Each box is divided into two equal-sized compartments by a wall with a 12 cm-wide open door. One compartment is painted white and brightly illuminated, and the other is painted black with very dim light. The time each rat spends in each compartment is monitored by rows of five photocells located 2.5 cm above the grid floor of each compartment. […]

[6] = test system: FGFR2 and FGFR3 exon IIIc:IIIb splice variants; test: Real time RT-PCR of exon IIIc:IIIb splice variant ratio in frontal cortex, chronic unpredictable stress; assay type: in vivo, rats; details: 5 ng/g i.p. every 48 hours for three weeks
Experimental: Animals. Twenty-four male Sprague-Dawley rats weighing 220-250 g were ordered from Charles River (Wilmington, Mass.) and remained undisturbed for one week to acclimatize to housing conditions. The animals were housed in pairs on a 12 h light-dark cycle (lights on 6:00 A.M.) with food and water available ad libitum. All experiments were conducted in accordance with the NIH Guide for the Care and Use of Animals and the University Committee on the Use and Care of Animals.
FGF2 injection treatments and chronic unpredictable stress (CUS) conditions. […]
Total RNA extraction. […] Using the Bioanalyzer's concentration readings, the samples were normalized to 25 ng/μL of total RNA per subject and stored at −80° C.
cDNA synthesis. cDNA was synthesized using the iScript cDNA Synthesis Kit (Bio-Rad, Hercules, Calif.). […] The double-stranded cDNA solutions were then analyzed for quality and concentration using Invitrogen's Quant-iT PicoGreen dsDNA kit. […] The fluorescently labeled samples were analyzed with a 1420 Victor^2 Multilabel Counter (EG&G Wallac, Wellesley, Mass.) using the basic Fluorescein protocol. […]
Real time RT-PCR primer design. […] Exon sequences were analyzed using NCBI's nucleotide and protein BLAST and were matched with their corresponding protein products within the receptor structures (FIG. 11). […]

EVYVVAENQQGKSKA [NCAM]
time in the center quadrant of EPM [1]: significantly less time
time in the closed arms of EPM [1]: more time (although not significantly more time)
time in the open arms of EPM [1]: less time
immobility in FST [2]: less immobility

FGF2: human recombinant FGF2 (Sigma); ligand of the FGF receptor
time on average to find a hidden platform in Morris Water maze test [3]: 20 s
performance in learning and memory tests ([3]; versus vehicle): significantly better
time in the closed arms of EPM [1]: significantly more time
time in the open arms of EPM [1]: less time
expression of CCK [4]: increased
expression of NCAM [4]: decreased
expression of Rgs4 [4]: increased
expression of SST [4]: increased
expression of Vgf [4]: increased
expression of trkb [4]: increased
expression of GAP-43 ([4]; histochemical and RNA expression assays): increased
immobility in FST [2]: less immobility
swimming in FST [2]: more swimming
anxiety versus vehicle animals ([5]; tested one day after last injection): less anxious
anxiety-reducing effect in innately more anxious (LR) rats ([5]; LR versus HR rats): clearly more pronounced
effect on magnitude of IIIc:IIIb ratio changes caused by stress [6]: nor did it significantly affect
effect on exon IIIc:IIIb ratio ([6]; NS or S group, P>0.1): did not alter the IIIc:IIIb ratio significantly

HFKDPKRLY [FGF system peptide inhibitor]
time in the center quadrant of EPM [1]: significantly more time
time in the closed arms of EPM [1]: less time
time in the open arms of EPM [1]: equal time
climbing in FST [2]: significantly less climbing
immobility in FST [2]: more immobility
swimming in FST [2]: less swimming

From patent publication US20090019557A1, “FGF2-RELATED METHODS FOR DIAGNOSING AND TREATING DEPRESSION” (priority 2005, published 2009)
